Results on six compounds are retold here after PMC6627558, “Structures and Bioactivities of Six New Triterpene Glycosides, Psolusosides E, F, G, H, H1, and I and the Corrected Structure of Psolusoside B from the Sea Cucumber Psolus fabricii” (Marine Drugs, 2019).

Data set [1] in a line: Hemolytic activity against mouse erythrocytes. Format: cell-based. The note with it: CD-1, mouse erythrocyte suspension, pH 7.4, 24 h at 37 °C, read-out: Cytotoxicity EC50, Erhythrocytes (hemolytic activity). The procedure:
Blood was taken from CD-1 mice (18–20 g). The mice were anesthetized with diethyl ether, their chests were rapidly opened, and blood was collected in cold (4 °C) 10 mM phosphate-buffered saline, pH 7.4 (PBS) without anticoagulant. Erythrocytes were washed 3 times in PBS using at least 10 vol. of washing solution by centrifugation (2000 rpm) for 5 min. Erythrocytes were used at a concentration that provided an optical density of 1.0 at 700 nm for a non-hemolyzed sample. Then, 20 μL of a water solution of test substance with a fixed concentration was added to a well of a 96-well plate containing 180 μL of the erythrocyte suspension. Erythrocyte suspension was incubated with substances for 24 h at 37 °C. After that, the optical density of the obtained solutions was measured and ED50 for hemolytic activity of each compound was calculated.

Data set [2] can be described thus: Cytotoxic activity against ascite form of mouse Ehrlich carcinoma cells (nonspecific esterase / MTT assay). Format: cell-based. Particulars: ascite form of mouse Ehrlich carcinoma cells; read-out: Cytotoxicity EC50, Ehrlich carcinoma. On the procedure:
(§1) The museum tetraploid strain of murine ascite Ehrlich carcinoma cells from the All-Russian Oncology Center (Moscow, Russia) was used. The cells were separated from the ascites, which were collected on day 7 after inoculation in mouse CD-1 line. The cells were washed of the ascites triply and resuspended in RPMI-1640 medium containing 8 μg/mL gentamicin (BioloT, St-Petersburg, Russia). Neuroblastoma Neuro 2A cells were cultured in DMEM medium containing 10% fetal bovine serum (FBS), (BioloT, St-Petersburg, Russia) and normal epithelial JB-6 cells were cultured in DMEM medium containing 5% fetal bovine serum (FBS), (BioloT, St-Petersburg, Russia) and 1% penicillin/streptomycine (Invitrogen). The HT-29 (ATCC # HTB-38) human colon cancer cell line was grown in monolayer in McCoy’s 5A medium supplemented with 10% (v/v) heat-inactivated FBS, 2 mM L-glutamine, and 1% penicillin-streptomycin in a humidified atmosphere containing 5% CO2. Cells were maintained in a sterile environment and kept in an incubator at 5% CO2 and 37 °C to promote growth. HT-29 cells were sub-cultured every 3–4 days by rinsing with phosphate buffered saline (PBS), adding trypsin to detach the cells from the tissue culture flask, and transferring 10%–20% of the harvested cells to a new flask containing fresh growth media.
(§2) Cytotoxic activity against ascite form of mouse Ehrlich carcinoma cells was investigated by nonspecific esterase activity assay. In total, 10µL of the test substance solution and 100 μL of the cell suspension were placed into each well of a 96-well microplate. The plate was incubated in a CO2 incubator at 37 °C for 1 or 24 h. A stock solution of the probe fluorescein diacetate (FDA; Sigma, St. Louis, MO, USA) in DMSO (1 mg/mL) was prepared. After incubation of the cells with test compounds, 10 μL of FDA solution (50 μg/mL) was added to each well and the plate was incubated at 37 °C for 15 min. Cells were washed with PBS, and fluorescence was measured with a Fluoroskan Ascent plate reader (Thermo Labsystems, Helsinky, Finland) at λex = 485 nm and λem = 518 nm. All experiments were repeated in triplicate. Cytotoxic activity was expressed as the percent of cell viability. Nonspecific esterase activity assay has been used for determination of cytotoxicity against neuroblastoma Neuro 2A and normal epithelial JB-6 cells.
The solutions of tested substances in different concentrations (20 µL) and cell suspension (200 µL) were added in wells of 96-well plate and incubated over night at 37 °C and 5% CO2. After incubation, the cells were sedimented by centrifugation, 200 µL of medium from each well were collected, and 100 µL of pure medium were added. Then, 10 µL of MTT solution […] (Sigma, St. Louis, MO, USA) were added in each well. The plate was incubated for 4 h, after which 100 µL SDS-HCl were added to each well, and the plate was incubated at 37 °C for 4–18 h. Optical density was measured at 570 nm and 630–690 nm. Cytotoxic activity of the substances was calculated as the concentration that caused 50% metabolic cell activity inhibition (IC50). The MTT assay has been used for determination of cytotoxic activity against Ehrlich carcinoma cells.
On the technique in general: Formazan colour is commonly taken as a measure of viable cells.

Data set [3] in a line: Cytotoxicity against neuroblastoma Neuro 2A cells (nonspecific esterase activity assay). It counts as cell-based, mouse. Particulars: mouse neuroblastoma Neuro 2A cells. The procedure: as §1, §2
Data set [4] deals with human colorectal adenocarcinoma HT-29 cells. As to the kind of experiment: MTS assay, cell viability of HT-29 cells. It counts as cell-based. Particulars: Homo sapiens, 0–20 μM, 24 h. The procedure:
as §1
The HT-29 cells (1.0 × 10^4/well) were seeded in 96-well plates for 24 h at 37 °C in 5% CO2 incubator. The cells were treated with the tested substances at concentrations range from 0 to 20 μM for an additional 24 h. Subsequently, cells were incubated with 15 μL MTS reagent for 3 h and the absorbance in each well was measured at 490/630 nm using microplate reader “Power Wave XS” (Bio Tek, Winooski, VT, USA). All the experiments were repeated three times, and the mean absorbance values were calculated. The results are expressed as the percentage of inhibition that produced a reduction in absorbance by compound’s treatment compared to the non-treated cells (control).

For data set [5] the test system is unchanged. Description: Soft agar assay, colony formation and growth of HT-29 cells. Format: cell-based. The note with it: Homo sapiens, 336 h, 0–10 μM, 14 days, read-out: Soft Agar Assay ICCF50 (inhibition of colony formation). On the procedure: as §1
The HT-29 cells (8.0 × 10^3) were seeded in 6-well plate and treated with the tested compounds at concentrations range 0–10 μM in 1 mL of 0.3% Basal Medium Eagle (BME) agar containing 10% FBS, 2mM L-glutamine, and 25 μg/mL gentamicin. The cultures were maintained at 37 °C in a 5% CO2 incubator for 14 days, and the cell’s colonies were scored using a microscope “Motic AE 20” (Scientific Instrument Company, Campbell, CA, USA) and the Motic Image Plus version 2.0 (Scientific Instrument Company, Campbell, CA, USA) computer program.

The nature of data set [6]: Cytotoxicity against normal epithelial JB-6 cells (nonspecific esterase activity assay). Format: cell-based, mouse. The note with it: mouse, normal epithelial JB-6 cells. On the procedure:
as §1, §2

For data set [7], the system named is mouse neuroblastoma Neuro 2A cells. Description: Cytotoxicity against neuroblastoma Neuro 2A cells (nonspecific esterase activity assay). It counts as cell-based. Particulars: Neuro 2A cells. The procedure:
as §1, §2

Data set [8] relates to normal epithelial JB-6 cells. Description: Cytotoxicity against normal epithelial JB-6 cells (nonspecific esterase activity assay). Particulars: JB-6 cells. It counts as cell-based, mouse. The procedure:
as §1, §2

Structures can show the parent of a compound that is named as a salt.

What is called EC50 is the concentration needed to bring the measured effect to its halfway point. With `C=C(C)CCC[C@]1(C)OC(=O)[C@]23CC=C4[C@@H](CC[C@H]5C(C)(C)[C@@H](O[C@@H]6OC[C@@H](O)[C@H](O)[C@H]6O[C@@H]6O[C@H](C)[C@@H](O[C@@H]7O[C@H](COS(=O)(=O)O)[C@@H](O)[C@H](O[C@@H]8O[C@H](CO)[C@@H](O)[C@H](OC)[C@H]8O)[C@H]7O)[C@H](O)[C@H]6O)CC[C@]45C)[C@]2(C)CC(=O)[C@@H]31` [Psolusoside E (2), 3β-O-[3-O-methyl-β-D-glucopyranosyl-(1→3)-6-O-sodium-sulfate-β-D-glucopyranosyl-(1→4)-β-D-quinovopyranosyl-(1→2)-β-D-xylopyranosyl]-16-ketoholosta-9(11),25-diene], the 50% effective concentration (EC50) at 24 h in data set [1] was determined as 0.23 µM. The 50% effective concentration (EC50) in data set [2] is 55.8 µM; in data set [3], 3.96 µM. Besides, the values for the IC50 in data set [4] and in data set [5] were above 20 µM and 0.1 ± 0.03 µM, respectively.

On to `C=C(C)CCC[C@]1(C)OC(=O)[C@]23CC=C4[C@@H](CC[C@H]5C(C)(C)[C@@H](O[C@@H]6OC[C@@H](O)[C@H](O)[C@H]6O[C@@H]6O[C@H](C)[C@@H](O[C@@H]7O[C@H](CO)[C@@H](O)[C@H](O[C@@H]8O[C@H](COS(=O)(=O)O)[C@@H](O)[C@H](OC)[C@H]8O)[C@H]7O)[C@H](O)[C@H]6O)CC[C@]45C)[C@]2(C)CC(=O)[C@@H]31` [Psolusoside F (3), 3β-O-[6-O-sodium-sulfate-3-O-methyl-β-D-glucopyranosyl-(1→3)-β-D-glucopyranosyl-(1→4)-β-D-quinovopyranosyl-(1→2)-β-D-xylopyranosyl]-16-ketoholosta-9(11),25-diene], for which the EC50 at 24 h in data set [1] came to 2.8 µM. In addition, the concentration giving a half-maximal response (EC50) in data set [2] turned out to be 96.2 µM; in data set [3], 10.8 µM; in data set [6], 23.8 µM. In addition, the IC50 is above 20 µM in data set [4] and 0.5 ± 0.03 µM in data set [5].

As to `C=C(C)CCC[C@]1(C)OC(=O)[C@]23CC=C4[C@@H](CC[C@H]5C(C)(C)[C@@H](O[C@@H]6OC[C@@H](O)[C@H](O)[C@H]6O[C@@H]6O[C@H](CO)[C@@H](O[C@@H]7O[C@H](COS(=O)(=O)O)[C@@H](O)[C@H](O[C@@H]8O[C@H](COS(=O)(=O)O)[C@@H](O)[C@H](OC)[C@H]8O)[C@H]7O)[C@H](O)[C@H]6O)CC[C@]45C)[C@]2(C)CC(=O)[C@@H]31` [Psolusoside G (4), 3β-O-[6-O-sodium-sulfate-3-O-methyl-β-D-glucopyranosyl-(1→3)-6-O-sodium-sulfate-β-D-glucopyranosyl-(1→4)-β-D-glucopyranosyl-(1→2)-β-D-xylopyranosyl]-16-ketoholosta-9(11),25-diene], the EC50 at 24 h in data set [1] was 4.2 µM. For the same compound, the half-maximal effective concentration (EC50) was 98.3 µM in data set [2], 7.3 µM in data set [3] and above 100 µM in data set [6]. In addition, in data set [7], the “activity against Neuro 2A cells (in words)” value is reported as “high activity”. Moreover, the “cytotoxicity against normal JB-6 cells (in words)” value in data set [8] is “not cytotoxic”.

Regarding `C=C(C)CCC[C@]1(C)OC(=O)[C@]23CC[C@@H]4C(=CC[C@H]5C(C)(C)[C@@H](O[C@@H]6OC[C@@H](O)[C@H](O)[C@H]6O[C@@H]6O[C@H](CO)[C@@H](O[C@@H]7O[C@H](COS(=O)(=O)O)[C@@H](O)[C@H](O)[C@H]7O)[C@H](O)[C@H]6O)CC[C@]45C)[C@]2(C)CC[C@@H]31` [Psolusoside H1 (6), 3β-O-[6-O-sodium-sulfate-β-D-glucopyranosyl-(1→4)-β-D-glucopyranosyl-(1→2)-β-D-xylopyranosyl]-holosta-7,25-diene], in data set [1], the concentration for a half-maximal effect (EC50) at 24 h was determined as 2.7 µM. The EC50 in data set [2] is 92.5 µM; in data set [3], 10.7 µM; in data set [6], 32.3 µM. In addition, the IC50 in data set [4] is above 20 µM; in data set [5], 9 ± 0.3 µM.

Regarding `C=C(C)CCC[C@]1(C)OC(=O)[C@]23CC[C@@H]4C(=CC[C@H]5C(C)(C)[C@@H](O[C@@H]6OC[C@@H](O)[C@H](O)[C@H]6O[C@@H]6O[C@H](CO)[C@@H](O[C@@H]7O[C@H](COS(=O)(=O)O)[C@@H](O)[C@H](O)[C@H]7O)[C@H](O)[C@H]6O)CC[C@]45C)[C@]2(C)CC(=O)[C@@H]31` [Psolusoside H (5), 3β-O-[6-O-sodium-sulfate-β-D-glucopyranosyl-(1→4)-β-D-glucopyranosyl-(1→2)-β-D-xylopyranosyl]-16-ketoholosta-7,25-diene], in data set [1], the concentration giving a half-maximal response (EC50) at 24 h came out at 2.5 µM. The figures for the EC50 in data set [2], in data set [3] and in data set [6] were above 100 µM, 47.5 µM and 43.2 µM, respectively. In addition, the IC50 was above 20 µM in data set [4] and above 10 µM in data set [5].

Take `C=C(C)CCC[C@](C)(OC(C)=O)[C@H]1[C@@H]2C[C@@]3(C)C4=CC[C@H]5C(C)(C)[C@@H](O[C@@H]6OC[C@@H](O[C@@H]7O[C@H](CO)[C@@H](O)[C@H](O)[C@H]7OS(=O)(=O)O)[C@H](O)[C@H]6O[C@@H]6O[C@H](CO)[C@@H](O[C@@H]7O[C@H](COS(=O)(=O)O)[C@@H](O)[C@H](O)[C@H]7O)[C@H](O)[C@H]6O)CC[C@]5(C)[C@@H]4CC[C@]13C(=O)O2` [psolusoside B (1), 3β-O-{6-O-sodium sulfate-β-D-glucopyranosyl-(1→4)-β-D-glucopyranosyl-(1→2)-[2-O-sodium sulfate-β-D-glucopyranosyl-(1→4)]-β-D-xylopyranosyl}-9βH,20(S)-acetoxylanosta-7,25-diene-18(16)-lactone]: the IC50 in data set [4] is above 20 µM; in data set [5], above 10 µM.
